Earlier results on 1 compound are cited in patent US20120269871A1, “SOLID STATE FORMS OF RASAGILINE SALTS” (ACTAVIS GROUP PTC EHF, priority 2009, published 2012).

Each structure is given as a SMILES string.

For the compound `C#CCN[C@@H]1CCc2ccccc21.CS(=O)(=O)O` [Rasagiline mesylate], the solubility in ethanol result (solvent: ethanol) is reported as “freely soluble”. Also, where the note is “solvent: isopropanol”, the solubility in isopropanol result is on record as “sparingly soluble”. Moreover, where the note is “solvent: water”, the solubility in water result is recorded as “freely soluble”.
